Reference: patent publication US9546172B2, “Pyrazolo[3,4-d]pyrimidine and pyrazolo[2,3-d]pyrimidine compounds as kinase inhibitors” (Pharmacyclics LLC, priority 2011, dated 2017)

Experiments:
Type in all cases: biochemical
C-src = C-src (Homo sapiens, UniProt P12931); assay: C-src kinase inhibition
Method: (§1) Btk kinase activity was determined using a time-resolved fluorescence resonance energy transfer (TR-FRET) methodology. Measurements were performed in a reaction volume of 50 μL using 96-well assay plates. […] The reaction was quenched by the addition of 1.2 equivalents of EDTA (relative to divalent cation) in 25 μL of 1× Lance buffer (Perkin-Elmer). Streptavidin-APC (Perkin-Elmer) and Eu-labeled p-Tyr100 antibody (Perkin-Elmer) in 1× Lance buffer were added in a 25 μL volume to give final concentrations of 100 nM and 2.5 nM, respectively, and the mixture was allowed to incubate for one hour. The TR-FRET signal was measured on a multimode plate reader with an excitation wavelength (λEx) of 330 nm and detection wavelengths (λEm) of 615 and 665 nm. Activity was determined by the ratio of the fluorescence at 665 nm to that at 615 nm. For each compound, enzyme activity was measured at various concentrations of compound. Negative control reactions were performed in the absence of inhibitor in replicates of six, and two no-enzyme controls were used to determine baseline fluorescence levels Inhibition constants, Ki(app), were obtained using the program BatchKi (Kuzmic et al. (2000), Anal. Biochem. 286:45-50). IC50s were obtained according to the equation: IC50={Ki(app)/(1+[ATP]/Km^ATP)}+[E]total/2; For all kinases, [ATP]=Km^ATP, [Btk]total=0.5 nM and [Lck]total=6 nM.

Lck = Lck (Homo sapiens, UniProt P06239); assay: Lck kinase inhibition
Lck, sequence (P06239 whole entry): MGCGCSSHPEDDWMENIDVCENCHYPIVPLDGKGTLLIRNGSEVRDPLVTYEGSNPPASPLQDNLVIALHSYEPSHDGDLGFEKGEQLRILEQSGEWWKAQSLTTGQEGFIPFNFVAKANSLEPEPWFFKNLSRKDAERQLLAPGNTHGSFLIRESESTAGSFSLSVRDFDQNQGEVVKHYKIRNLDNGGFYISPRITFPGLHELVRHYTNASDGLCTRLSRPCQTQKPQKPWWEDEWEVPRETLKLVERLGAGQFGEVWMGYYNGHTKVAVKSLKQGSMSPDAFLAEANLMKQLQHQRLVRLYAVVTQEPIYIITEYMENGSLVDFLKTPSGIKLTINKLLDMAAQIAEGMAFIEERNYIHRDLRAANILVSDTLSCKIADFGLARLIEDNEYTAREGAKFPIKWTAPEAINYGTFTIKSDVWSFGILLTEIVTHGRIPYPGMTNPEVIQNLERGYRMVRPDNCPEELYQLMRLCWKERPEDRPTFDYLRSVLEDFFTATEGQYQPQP
Method: as §1

BLK = BLK (Homo sapiens, UniProt P51451); assay: BLK kinase inhibition
BLK, sequence (P51451 whole entry): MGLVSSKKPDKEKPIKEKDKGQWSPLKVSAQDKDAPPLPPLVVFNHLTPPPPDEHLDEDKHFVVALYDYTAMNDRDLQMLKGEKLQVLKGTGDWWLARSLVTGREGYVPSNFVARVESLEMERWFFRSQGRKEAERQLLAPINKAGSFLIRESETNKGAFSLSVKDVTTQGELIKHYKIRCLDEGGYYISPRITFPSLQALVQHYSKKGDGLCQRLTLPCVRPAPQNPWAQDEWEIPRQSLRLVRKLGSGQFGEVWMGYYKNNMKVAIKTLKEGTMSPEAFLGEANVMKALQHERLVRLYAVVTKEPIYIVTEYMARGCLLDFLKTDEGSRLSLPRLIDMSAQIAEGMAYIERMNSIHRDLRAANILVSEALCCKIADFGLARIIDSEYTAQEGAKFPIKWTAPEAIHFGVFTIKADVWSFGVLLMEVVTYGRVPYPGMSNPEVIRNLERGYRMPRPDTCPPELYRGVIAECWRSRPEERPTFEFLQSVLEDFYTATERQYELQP
Method: as §1

Lyn = Lyn (Homo sapiens, UniProt P07948); assay: Lyn kinase inhibition
Lyn, sequence (P07948 whole entry): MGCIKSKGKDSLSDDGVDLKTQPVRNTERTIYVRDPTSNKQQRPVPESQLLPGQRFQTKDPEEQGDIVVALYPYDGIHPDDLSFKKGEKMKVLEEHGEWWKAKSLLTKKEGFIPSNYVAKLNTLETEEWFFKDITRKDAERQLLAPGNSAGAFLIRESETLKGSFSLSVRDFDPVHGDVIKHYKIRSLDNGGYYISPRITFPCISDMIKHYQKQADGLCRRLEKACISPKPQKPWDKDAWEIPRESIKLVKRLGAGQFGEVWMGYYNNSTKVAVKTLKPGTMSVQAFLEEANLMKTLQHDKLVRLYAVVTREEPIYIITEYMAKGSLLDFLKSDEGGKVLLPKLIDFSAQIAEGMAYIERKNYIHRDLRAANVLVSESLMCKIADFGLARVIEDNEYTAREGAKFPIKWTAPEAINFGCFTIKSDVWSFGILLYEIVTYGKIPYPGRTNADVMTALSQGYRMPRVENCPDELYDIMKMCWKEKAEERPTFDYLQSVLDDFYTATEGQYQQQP

EGFR = EGFR (Homo sapiens, UniProt P00533); assay: EGFR kinase inhibition
EGFR, sequence (P00533 25-1210): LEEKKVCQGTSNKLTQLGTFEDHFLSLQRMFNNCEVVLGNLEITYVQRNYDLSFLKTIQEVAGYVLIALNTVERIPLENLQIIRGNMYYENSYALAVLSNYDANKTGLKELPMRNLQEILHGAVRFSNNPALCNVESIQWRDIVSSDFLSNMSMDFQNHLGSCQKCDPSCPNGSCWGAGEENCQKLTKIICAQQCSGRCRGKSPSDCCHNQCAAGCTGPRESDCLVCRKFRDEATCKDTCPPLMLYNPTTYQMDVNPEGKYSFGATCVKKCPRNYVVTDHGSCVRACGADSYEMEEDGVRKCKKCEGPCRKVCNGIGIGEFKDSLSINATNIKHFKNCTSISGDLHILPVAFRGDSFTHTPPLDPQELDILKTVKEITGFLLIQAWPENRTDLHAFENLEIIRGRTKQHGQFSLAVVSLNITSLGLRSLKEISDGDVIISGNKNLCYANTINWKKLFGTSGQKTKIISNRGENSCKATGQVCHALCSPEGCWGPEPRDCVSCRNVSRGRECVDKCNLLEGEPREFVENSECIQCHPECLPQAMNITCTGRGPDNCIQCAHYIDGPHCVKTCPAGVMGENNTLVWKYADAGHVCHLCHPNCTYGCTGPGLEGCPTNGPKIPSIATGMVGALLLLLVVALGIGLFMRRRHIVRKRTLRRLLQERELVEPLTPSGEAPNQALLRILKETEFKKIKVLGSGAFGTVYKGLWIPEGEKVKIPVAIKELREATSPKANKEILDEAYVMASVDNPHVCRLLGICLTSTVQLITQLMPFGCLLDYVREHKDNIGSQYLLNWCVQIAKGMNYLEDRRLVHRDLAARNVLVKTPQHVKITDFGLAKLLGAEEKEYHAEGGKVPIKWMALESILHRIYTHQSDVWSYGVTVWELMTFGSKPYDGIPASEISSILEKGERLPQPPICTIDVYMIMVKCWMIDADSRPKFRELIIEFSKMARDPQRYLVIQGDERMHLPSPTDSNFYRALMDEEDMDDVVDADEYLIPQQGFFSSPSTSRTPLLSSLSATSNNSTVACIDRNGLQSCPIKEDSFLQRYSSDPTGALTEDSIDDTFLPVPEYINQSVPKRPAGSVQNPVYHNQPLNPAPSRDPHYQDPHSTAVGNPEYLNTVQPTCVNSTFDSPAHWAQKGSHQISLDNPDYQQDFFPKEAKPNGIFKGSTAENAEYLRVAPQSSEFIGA

BMX = biological target: T1, BMX (Homo sapiens, UniProt P51813); assay: BMX kinase inhibition
T1 sequence (P51813 1-675): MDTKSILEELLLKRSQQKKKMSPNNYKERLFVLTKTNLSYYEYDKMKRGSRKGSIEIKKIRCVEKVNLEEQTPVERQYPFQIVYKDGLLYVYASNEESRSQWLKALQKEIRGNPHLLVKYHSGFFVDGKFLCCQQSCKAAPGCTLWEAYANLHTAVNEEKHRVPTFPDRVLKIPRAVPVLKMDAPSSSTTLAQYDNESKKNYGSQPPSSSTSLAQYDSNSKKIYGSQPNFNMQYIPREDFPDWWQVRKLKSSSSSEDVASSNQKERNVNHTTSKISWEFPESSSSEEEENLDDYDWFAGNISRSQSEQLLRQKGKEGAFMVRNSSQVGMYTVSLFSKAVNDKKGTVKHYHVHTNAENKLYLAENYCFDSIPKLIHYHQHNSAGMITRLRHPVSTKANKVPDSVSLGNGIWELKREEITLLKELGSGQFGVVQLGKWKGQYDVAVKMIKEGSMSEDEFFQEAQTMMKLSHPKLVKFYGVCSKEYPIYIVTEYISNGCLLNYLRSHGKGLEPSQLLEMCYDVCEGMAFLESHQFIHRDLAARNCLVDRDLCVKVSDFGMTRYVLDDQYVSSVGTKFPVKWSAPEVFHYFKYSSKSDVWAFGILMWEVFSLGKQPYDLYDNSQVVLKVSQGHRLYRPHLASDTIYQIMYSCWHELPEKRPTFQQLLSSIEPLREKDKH

Btk = biological target: T2, Btk (Homo sapiens, UniProt Q06187); assay: Btk in vitro inhibitory activity (one of Methods A, B, C); details: determined in one of three in vitro assays (Examples 125-127)
T2 construct: purified from insect cells as a full-length construct containing a N-terminal 6×-His tag; 6xHis (N); host or cells: insect cells (baculovirus Sf21 in Method B)
Outline: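 Values come from one of three formats: TR-FRET (665/615 nm ratio; Ki(app) converted to IC50 with [ATP]=Km, 0.5 nM Btk), mobility-shift product/sum ratio over 12 concentrations with 4-parameter fit, or radiometric filter binding using His-tagged full-length human Btk (8 nM), 0.2 mg/mL poly-Glu-Tyr, 1 μM ATP, 120 min RT.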

RET = RET (Homo sapiens, UniProt P07949); assay: RET kinase inhibition
RET, sequence (P07949 29-1114): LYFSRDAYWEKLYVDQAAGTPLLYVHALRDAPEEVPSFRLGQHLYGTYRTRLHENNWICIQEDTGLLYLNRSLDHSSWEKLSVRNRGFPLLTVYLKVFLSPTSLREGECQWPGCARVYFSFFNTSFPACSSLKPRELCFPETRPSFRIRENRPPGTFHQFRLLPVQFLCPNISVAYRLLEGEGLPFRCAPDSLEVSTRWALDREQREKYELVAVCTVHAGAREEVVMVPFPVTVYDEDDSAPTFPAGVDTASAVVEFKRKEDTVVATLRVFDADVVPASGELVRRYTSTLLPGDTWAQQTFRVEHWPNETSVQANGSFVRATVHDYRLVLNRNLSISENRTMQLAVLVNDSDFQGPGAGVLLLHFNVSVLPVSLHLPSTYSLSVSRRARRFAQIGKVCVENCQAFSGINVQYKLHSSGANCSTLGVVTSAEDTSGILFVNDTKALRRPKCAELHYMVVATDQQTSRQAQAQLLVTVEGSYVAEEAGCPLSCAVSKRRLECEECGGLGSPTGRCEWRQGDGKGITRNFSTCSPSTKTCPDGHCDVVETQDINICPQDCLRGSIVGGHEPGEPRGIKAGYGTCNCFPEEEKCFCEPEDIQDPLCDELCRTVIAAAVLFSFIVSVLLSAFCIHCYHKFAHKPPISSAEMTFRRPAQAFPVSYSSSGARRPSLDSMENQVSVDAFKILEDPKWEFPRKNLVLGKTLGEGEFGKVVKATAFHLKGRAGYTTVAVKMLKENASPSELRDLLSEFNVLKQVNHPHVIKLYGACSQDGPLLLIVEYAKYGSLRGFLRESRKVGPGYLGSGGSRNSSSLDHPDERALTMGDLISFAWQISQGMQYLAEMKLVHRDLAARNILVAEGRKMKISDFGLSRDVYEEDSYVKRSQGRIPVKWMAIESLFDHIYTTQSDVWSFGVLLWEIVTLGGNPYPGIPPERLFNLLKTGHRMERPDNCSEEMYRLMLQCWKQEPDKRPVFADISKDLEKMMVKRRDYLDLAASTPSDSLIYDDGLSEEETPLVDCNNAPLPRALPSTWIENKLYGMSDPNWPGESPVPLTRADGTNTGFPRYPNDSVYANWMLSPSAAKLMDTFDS

CSK = CSK (Homo sapiens, UniProt P41240); assay: CSK kinase inhibition
CSK, sequence (P41240 whole entry): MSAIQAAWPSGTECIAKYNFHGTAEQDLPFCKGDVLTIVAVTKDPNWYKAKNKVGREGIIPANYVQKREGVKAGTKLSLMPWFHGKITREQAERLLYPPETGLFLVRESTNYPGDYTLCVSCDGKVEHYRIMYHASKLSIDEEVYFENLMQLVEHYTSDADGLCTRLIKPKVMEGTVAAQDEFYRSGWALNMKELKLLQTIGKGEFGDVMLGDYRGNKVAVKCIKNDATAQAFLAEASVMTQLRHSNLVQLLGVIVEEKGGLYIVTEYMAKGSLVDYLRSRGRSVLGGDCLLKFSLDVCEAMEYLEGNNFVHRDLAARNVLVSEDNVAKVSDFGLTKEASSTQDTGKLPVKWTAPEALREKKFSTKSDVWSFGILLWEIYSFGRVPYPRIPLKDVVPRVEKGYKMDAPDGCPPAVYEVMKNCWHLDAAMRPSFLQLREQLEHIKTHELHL

Tec = biological target: T3, Tec (Homo sapiens, UniProt P42680); assay: Tec kinase inhibition
T3 sequence (P42680 1-631): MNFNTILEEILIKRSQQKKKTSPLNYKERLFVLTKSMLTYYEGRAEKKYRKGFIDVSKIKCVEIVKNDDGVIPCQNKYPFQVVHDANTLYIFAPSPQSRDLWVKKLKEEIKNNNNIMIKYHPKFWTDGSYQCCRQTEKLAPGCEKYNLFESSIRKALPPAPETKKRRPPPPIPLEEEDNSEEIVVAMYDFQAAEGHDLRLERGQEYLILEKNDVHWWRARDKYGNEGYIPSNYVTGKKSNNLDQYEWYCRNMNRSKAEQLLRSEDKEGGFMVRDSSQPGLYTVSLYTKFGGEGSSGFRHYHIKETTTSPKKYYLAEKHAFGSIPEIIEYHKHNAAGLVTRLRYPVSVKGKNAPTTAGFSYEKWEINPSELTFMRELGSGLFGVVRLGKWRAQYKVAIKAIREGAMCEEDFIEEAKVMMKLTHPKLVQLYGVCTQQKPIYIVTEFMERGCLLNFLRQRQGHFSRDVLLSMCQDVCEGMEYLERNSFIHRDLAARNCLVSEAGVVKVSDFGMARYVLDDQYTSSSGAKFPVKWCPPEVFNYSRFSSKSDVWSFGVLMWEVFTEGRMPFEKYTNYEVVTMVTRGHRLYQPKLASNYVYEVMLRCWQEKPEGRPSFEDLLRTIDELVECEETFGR
Method: as §1

C-src, sequence (P12931 whole entry): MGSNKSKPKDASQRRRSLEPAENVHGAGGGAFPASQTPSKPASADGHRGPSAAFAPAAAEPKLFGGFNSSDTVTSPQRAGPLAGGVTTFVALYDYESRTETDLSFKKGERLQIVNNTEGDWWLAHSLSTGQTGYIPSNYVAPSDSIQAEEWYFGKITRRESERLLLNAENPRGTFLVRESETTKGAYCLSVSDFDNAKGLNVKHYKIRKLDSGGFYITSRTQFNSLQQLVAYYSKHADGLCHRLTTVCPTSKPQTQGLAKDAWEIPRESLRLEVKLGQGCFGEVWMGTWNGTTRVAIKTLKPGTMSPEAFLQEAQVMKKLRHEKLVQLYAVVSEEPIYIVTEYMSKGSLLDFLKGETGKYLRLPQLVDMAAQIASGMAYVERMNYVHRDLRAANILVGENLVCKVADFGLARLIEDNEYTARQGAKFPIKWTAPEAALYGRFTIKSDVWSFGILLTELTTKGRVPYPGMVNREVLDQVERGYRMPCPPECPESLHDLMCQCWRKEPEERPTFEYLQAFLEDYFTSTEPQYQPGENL

SMILES	IC50 (C-src) [nM]	IC50 (Lck) [nM]	IC50 (BLK) [nM]	IC50 (Lyn) [nM]	IC50 (EGFR) [nM]	IC50 (BMX) [nM]	IC50 (Btk) [nM]	IC50 (RET) [nM]	IC50 (CSK) [nM]	IC50 (Tec) [nM]
COc1cc(-c2nn([C@@H]3CCN(C(=O)/C=C/CN(C)C)C3)c3ncnc(N)c23)ccc1F [Example 8, (R,E)-1-(3-(4-amino-3-(4-fluoro-3-methoxyphenyl)-1H-pyrazolo[3,4-d]pyrimidin-1-yl)pyrrolidin-1-yl)-4-(dimethylamino)but-2-en-1-one]	100 to 1000	100 to 1000	100 to 1000	> 1000	100 to 1000	< 100	< 100	> 1000	> 1000	< 100
CN(C)C/C=C/C(=O)N1CC[C@@H](n2nc(-c3ccc(Cl)cc3)c3c(N)ncnc32)C1 [Example 1, (E)-1-((R)-3-(4-amino-3-(4-chlorophenyl)-1H-pyrazolo[3,4-d]pyrimidin-1-yl)pyrrolidin-1-yl)-4-(dimethylamino)but-2-en-1-one]	< 100	100 to 1000	< 100	100 to 1000	100 to 1000	< 100	< 100	100 to 1000	100 to 1000	< 100
CN(C)C/C=C/C(=O)N1CC[C@@H](n2nc(-c3ccc(F)cc3)c3c(N)ncnc32)C1 [Example 3, (R,E)-1-(3-(4-amino-3-(4-fluorophenyl)-1H-pyrazolo[3,4-d]pyrimidin-1-yl)pyrrolidin-1-yl)-4-(dimethylamino)but-2-en-1-one]	100 to 1000	> 1000	100 to 1000	> 1000	> 1000	< 100	< 100	> 1000	> 1000	< 100
CN(C/C=C/C(=O)N1CC[C@@H](n2nc(-c3ccc(Cl)cc3)c3c(N)ncnc32)C1)C1CCC1 [Example 10, (R,E)-1-(3-(4-amino-3-(4-chlorophenyl)-1H-pyrazolo[3,4-d]pyrimidin-1-yl)pyrrolidin-1-yl)-4-(cyclobutyl(methyl)amino)but-2-en-1-one]	> 1000	100 to 1000	100 to 1000	> 1000	100 to 1000	< 100	< 100	100 to 1000	> 1000	< 100
CN(C)C/C=C/C(=O)N1CC[C@@H](n2nc(-c3ccc(Cl)cc3F)c3c(N)ncnc32)C1 [Example 7, (R,E)-1-(3-(4-amino-3-(4-chloro-2-fluorophenyl)-1H-pyrazolo[3,4-d]pyrimidin-1-yl)pyrrolidin-1-yl)-4-(dimethylamino)but-2-en-1-one]	< 100	100 to 1000	100 to 1000	100 to 1000	100 to 1000	< 100	< 100	100 to 1000	100 to 1000	< 100
Cc1ccc(-c2nn([C@@H]3CCN(C(=O)/C=C/CN(C)C4CCC4)C3)c3ncnc(N)c23)cc1 [Example 12, (R,E)-1-(3-(4-amino-3-p-tolyl-1H-pyrazolo[3,4-d]pyrimidin-1-yl)pyrrolidin-1-yl)-4-(cyclobutyl(methyl)amino)but-2-en-1-one]	100 to 1000	100 to 1000	100 to 1000	> 1000	> 1000	< 100	< 100	100 to 1000	> 1000	< 100
COc1cc(-c2nn(-c3cccc(N(C)C(=O)/C=C/CN(C)C4CCC4)c3)c3ncnc(N)c23)ccc1C [Example 23, (E)-N-(3-(4-amino-3-(3-methoxy-4-methylphenyl)-1H-pyrazolo[3,4-d]pyrimidin-1-yl)phenyl)-4-(cyclobutyl(methyl)amino)-N-methylbut-2-enamide]	< 100	100 to 1000	< 100	< 100	< 100	< 100	< 100	> 1000	> 1000	< 100
CN(C)C/C=C/C(=O)Nc1cccc(-n2nc(-c3ccc(Cl)cc3)c3c(N)ncnc32)c1 [Example 27, (E)-N-(3-(4-amino-3-(4-chlorophenyl)-1H-pyrazolo[3,4-d]pyrimidin-1-yl)phenyl)-4-(dimethylamino)but-2-enamide]	< 100	< 100	< 100	100 to 1000	< 100	< 100	< 100	100 to 1000	100 to 1000	< 100
CN(C)C/C=C/C(=O)N(C)c1ccc(-n2nc(-c3ccc(Cl)cc3)c3c(N)ncnc32)cc1 [Example 14, (E)-N-(4-(4-amino-3-(4-chlorophenyl)-1H-pyrazolo[3,4-d]pyrimidin-1-yl)phenyl)-4-(dimethylamino)-N-methylbut-2-enamide]	< 100	100 to 1000	100 to 1000	100 to 1000	100 to 1000	< 100	< 100	100 to 1000	100 to 1000	< 100
COc1cc(-c2nn([C@@H]3CCN(C(=O)/C=C/CN(C)C)C3)c3ncnc(N)c23)ccc1C [Example 9, (R,E)-1-(3-(4-amino-3-(3-methoxy-4-methylphenyl)-1H-pyrazolo[3,4-d]pyrimidin-1-yl)pyrrolidin-1-yl)-4-(dimethylamino)but-2-en-1-one]	< 100	< 100	< 100	100 to 1000	< 100	< 100	< 100	> 1000	100 to 1000	< 100
